Measurements: US20060069132A1, “Azolecarboxamide herbicides” (priority 2004, published 2006)

Tests used:
wild oat = experiment: Test B postemergence herbicide test; type: in vivo, Avena fatua
How it was run: (§1)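 Treated at 2-leaf (paddy) or 1–4-leaf, 2–18 cm (postemergence); greenhouse 13–15 d; visual score vs control, 0 none to 100 complete control; dash = not tested.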

giant foxtail = experiment: Test B pre-/postemergence herbicide test; type: in vivo, Setaria faberi
How it was run: (§2)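 Formulation: non-phytotoxic solvent mix with surfactant. Timing: preemergence on seed and postemergence on 2–18 cm plants, applied concurrently. Readout after 13–15 d greenhouse: visual 0–100 control rating against controls.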

large crabgrass = experiment: Test B pre-/postemergence herbicide test; type: in vivo, Digitaria sanguinalis
How it was run: as §2

corn = experiment: Test B pre-/postemergence herbicide test; type: in vivo, Zea mays
How it was run: as §2

rice = experiment: Test B flooded paddy test; type: in vivo, Oryza sativa; settings: 1000 g ai/ha, scale 0 to 100 (0 no effect, 100 complete control)
How it was run: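 Scale 0–100: zero equals no visible effect, 100 complete control, judged by eye relative to controls. Timing: 13 to 15 days in greenhouse post-treatment. Growth stage at spraying: two leaves (paddy) or one to four leaves, 2–18 cm (postemergence).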

cocklebur = experiment: Test B pre-/postemergence herbicide test; type: in vivo, Xanthium strumarium
How it was run: (§3)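 Species tested were Echinochloa crus-galli, Ipomoea coccinea, Xanthium strumarium and Oryza sativa, treated both before emergence and at the 1- to 4-leaf stage; rice and barnyardgrass were also tested under flooding at 2 leaves. Greenhouse incubation lasted 13–15 days before visual 0–100 scoring.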

velvetleaf = experiment: Test B pre-/postemergence herbicide test; type: in vivo, Abutilon theophrasti
How it was run: as §2

barnyardgrass [1] = experiment: Test B flooded paddy test; type: in vivo, Echinochloa crus-galli; settings: 1000 g ai/ha, scale 0 to 100 (0 no effect, 100 complete control)
How it was run: (§4)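 Plants grow to 1- to 4-leaf stage (2–18 cm) for postemergence spraying, or to 2-leaf stage for the paddy test. Formulated compound is applied. Greenhouse holding lasts 13–15 days. Response is scored visually relative to controls, 0 no effect to 100 complete control; a dash means no result.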

barnyardgrass [2] = experiment: Test B pre-/postemergence herbicide test; type: in vivo, Echinochloa crus-galli
How it was run: as §3

lambsquarters = experiment: Test B pre-/postemergence herbicide test; type: in vivo, Chenopodium album
How it was run: as §2

wheat = experiment: Test B postemergence herbicide test; type: in vivo, Triticum aestivum; set-up: key to Wheat plant response rating: 0 = no effect, 100 = complete control
How it was run: as §1

pigweed = experiment: Test B pre-/postemergence herbicide test; type: in vivo, Amaranthus retroflexus
How it was run: as §2

Surinam grass = experiment: Test B pre-/postemergence herbicide test; type: in vivo, Urochloa decumbens
How it was run: as §2

morningglory = experiment: Test B pre-/postemergence herbicide test; type: in vivo, Ipomoea coccinea
How it was run: as §3

[3] = test system: small flower umbrella sedge; experiment: Test B flooded paddy test; type: in vivo, Cyperus difformis; settings: 1000 g ai/ha, scale 0 to 100 (0 no effect, 100 complete control)
How it was run: as §4

[4] = Postemergence, 500 g ai/ha, scale 0 (no effect) to 100 (complete control)
[5] = postemergence, 125 g ai/ha, scale 0 to 100
[6] = 125 g ai/ha, 0 is no effect, 100 is complete control, preemergence
[7] = 500 g ai/ha, scale 0 to 100, 0 no effect, 100 complete control, preemergence
[8] = 125 g ai/ha, visual rating, scale 0 (no effect) to 100 (complete control), postemergence
[9] = postemergence, 500 g ai/ha, scale 0 to 100, 0 is no effect, 100 is complete control
[10] = Postemergence, 500 g ai/ha, visual rating after 13 to 15 days, scale 0 (no effect) to 100 (complete control)
[11] = postemergence, 125 g ai/ha, visual rating, scale 0 (no effect) to 100 (complete control)
[12] = Preemergence, 500 g ai/ha, scale 0 to 100
[13] = preemergence, 125 g ai/ha, 0 to 100 scale, 0 is no effect, 100 is complete control
[14] = postemergence, 500 g ai/ha, visual rating, scale 0 (no effect) to 100 (complete control)
[15] = 500 g ai/ha, visual rating 0-100, 0 no effect, 100 complete control, preemergence

C=CCNC(=O)c1cccc(NC(=O)c2nn(C(C)(C)C)nc2CC)c1 [Compound 414]
60: Cocklebur plant response rating (cocklebur; [5]) | Surinam Grass plant response rating (Surinam grass; [4])
10: Wheat plant response rating (wheat; [5]) | Plant response rating (0 to 100 scale), Morningglory (morningglory; [6])
90: Plant response rating (0 to 100 scale), Foxtail, Giant (giant foxtail; [6]) | Plant response rating (0 to 100 scale), Barnyardgrass (barnyardgrass [2]; [6]) | Pigweed plant response rating (pigweed; [5]) | Plant response rating (0 to 100 scale), Surinam Grass (Surinam grass; [6]) | Sedge, Umbrella plant response rating [3]
50: Velvetleaf plant response rating (velvetleaf; [5])
100: Plant response rating (0 to 100 scale), Crabgrass, Large (large crabgrass; [6]) | Plant response rating (0 to 100 scale), Lambsquarters (lambsquarters; [6]) | Lambsquarters plant response rating (lambsquarters; [4]) | Wheat plant response rating (wheat; [7]) | Plant response rating (0 to 100 scale), Pigweed (pigweed; [6]) | Pigweed plant response rating (pigweed; [4])
30: Oat, Wild plant response rating (wild oat; [5]) | Foxtail, Giant plant response rating (giant foxtail; [5]) | Crabgrass, Large plant response rating (large crabgrass; [5]) | Corn plant response rating (corn; [5]) | Barnyardgrass plant response rating (barnyardgrass [2]; Postemergence, 125 g ai/ha, scale 0 (no effect) to 100 (complete control)) | Barnyardgrass plant response rating (barnyardgrass [2]; [4])
20: Plant response rating (0 to 100 scale), Cocklebur (cocklebur; [6]) | Wheat plant response rating (wheat; [4]) | Surinam Grass plant response rating (Surinam grass; [5]) | Morningglory plant response rating (morningglory; [5])
70: Crabgrass, Large plant response rating (large crabgrass; [4]) | Plant response rating (0 to 100 scale), Corn (corn; [6]) | Cocklebur plant response rating (cocklebur; [4]) | Plant response rating (0 to 100 scale), Velvetleaf (velvetleaf; [6]) | Velvetleaf plant response rating (velvetleaf; [4]) | Morningglory plant response rating (morningglory; [4])
40: Oat, Wild plant response rating (wild oat; [4]) | Foxtail, Giant plant response rating (giant foxtail; [4]) | Corn plant response rating (corn; [4])
80: Rice plant response rating (rice) | Barnyardgrass plant response rating (barnyardgrass [1]) | Lambsquarters plant response rating (lambsquarters; [5])

CCc1nn(C(C)(C)C)nc1C(=O)Nc1cccc(C(=O)N(C)CC)c1 [Compound 384]
10: Oat, Wild plant response rating (wild oat; [8]) | Foxtail, Giant plant response rating (giant foxtail; [8]) | Crabgrass, Large plant response rating (large crabgrass; [8]) | Corn plant response rating (corn; [9]) | Wheat plant response rating (wheat; [8]) | Surinam Grass plant response rating (Surinam grass; [8]) | Plant response rating (0 to 100 scale), Morningglory (morningglory; [6])
20: Wheat plant response rating (wheat; [4])
40: Crabgrass, Large plant response rating (large crabgrass; [9]) | Cocklebur plant response rating (cocklebur; [9]) | Morningglory plant response rating (morningglory; [4])
70: Plant response rating (0 to 100 scale), Velvetleaf (velvetleaf; [6]) | Velvetleaf plant response rating (velvetleaf; [4]) | Lambsquarters plant response rating (lambsquarters; [8]) | Pigweed plant response rating (pigweed; [4])
0: Corn plant response rating (corn; [8]) | Plant response rating (0 to 100 scale), Cocklebur (cocklebur; [6]) | Barnyardgrass plant response rating (barnyardgrass [2]; [8])
60: Surinam Grass plant response rating (Surinam grass; [4])
30: Oat, Wild plant response rating (wild oat; [4]) | Foxtail, Giant plant response rating (giant foxtail; [9]) | Cocklebur plant response rating (cocklebur; [8]) | Velvetleaf plant response rating (velvetleaf; [8]) | Barnyardgrass plant response rating (barnyardgrass [2]; [9]) | Pigweed plant response rating (pigweed; [8]) | Morningglory plant response rating (morningglory; [8])
100: Plant response rating (0 to 100 scale), Lambsquarters (lambsquarters; [6]) | Wheat plant response rating (wheat; [7]) | Plant response rating (0 to 100 scale), Surinam Grass (Surinam grass; [6])
90: Plant response rating (0 to 100 scale), Foxtail, Giant (giant foxtail; [6]) | Plant response rating (0 to 100 scale), Crabgrass, Large (large crabgrass; [6]) | Rice plant response rating (rice) | Barnyardgrass plant response rating (barnyardgrass [1]) | Plant response rating (0 to 100 scale), Barnyardgrass (barnyardgrass [2]; [6]) | Plant response rating (0 to 100 scale), Pigweed (pigweed; [6])
80: Plant response rating (0 to 100 scale), Corn (corn; [6]) | Lambsquarters plant response rating (lambsquarters; [4]) | Sedge, Umbrella plant response rating [3]

CCOC(=O)c1cccc(NC(=O)c2cc(C(C)(C)C)nn2CC)c1C [Compound 88]
90: Foxtail, Giant plant response rating (giant foxtail; [12]) | Plant response rating, Crabgrass, Large (large crabgrass; [13]) | Barnyardgrass plant response rating (barnyardgrass [2]; [12])
50: Plant response rating, Cocklebur (cocklebur; [10]) | Pigweed plant response rating (pigweed; [11])
100: Crabgrass, Large plant response rating (large crabgrass; [12]) | Plant response rating, Lambsquarters (lambsquarters; [10]) | Plant response rating, Lambsquarters (lambsquarters; [13]) | Plant response rating, Pigweed (pigweed; [13])
80: Sedge, Umbrella plant response rating ([3]; visual rating, 13 to 15 days)
70: Plant response rating, Foxtail, Giant (giant foxtail; [13]) | Plant response rating, Corn (corn; [10]) | Plant response rating, Velvetleaf (velvetleaf; [10]) | Barnyardgrass plant response rating (barnyardgrass [1]; visual rating, 13 to 15 days) | Plant response rating, Barnyardgrass (barnyardgrass [2]; [13]) | Lambsquarters plant response rating (lambsquarters; [11])
0: Plant response rating, Oat, Wild (wild oat; [10]) | Oat, Wild plant response rating (wild oat; [11]) | Plant response rating, Corn (corn; [13]) | Cocklebur plant response rating (cocklebur; [12]) | Plant response rating, Cocklebur (cocklebur; [13]) | Plant response rating, Wheat (wheat; [10]) | Wheat plant response rating (wheat; [11]) | Plant response rating, Surinam Grass (Surinam grass; [10]) | Surinam Grass plant response rating (Surinam grass; [11]) | Plant response rating, Morningglory (morningglory; [10]) | Morningglory plant response rating (morningglory; [11]) | Plant response rating, Morningglory (morningglory; [13])
20: Plant response rating, Surinam Grass (Surinam grass; [13])
10: Corn plant response rating (corn; [11]) | Cocklebur plant response rating (cocklebur; [11])
30: Foxtail, Giant plant response rating (giant foxtail; [11]) | Crabgrass, Large plant response rating (large crabgrass; [11]) | Velvetleaf plant response rating (velvetleaf; [11]) | Barnyardgrass plant response rating (barnyardgrass [2]; [11])
40: Plant response rating, Foxtail, Giant (giant foxtail; [10]) | Rice plant response rating (rice; visual rating, 13 to 15 days) | Plant response rating, Velvetleaf (velvetleaf; [13])
60: Plant response rating, Crabgrass, Large (large crabgrass; [10]) | Corn plant response rating (corn; [12]) | Plant response rating, Barnyardgrass (barnyardgrass [2]; [10]) | Plant response rating, Pigweed (pigweed; [10])

CCn1nc(C(C)(C)C)cc1C(=O)Nc1cccc(C(N)=O)n1 [Compound 162, 6-[[[3-(1,1-dimethylethyl)-1-ethyl-1H-pyrazol-5-yl]carbonyl]amino]-2-pyridinecarboxamide]
80: Plant response rating, Corn (corn; [15]) | Rice plant response rating (rice; visual rating, 13 to 15 days) | Velvetleaf plant response rating (velvetleaf; [14]) | Barnyardgrass plant response rating (barnyardgrass [1]; visual rating, 13 to 15 days) | Lambsquarters plant response rating (lambsquarters; [11]) | Pigweed plant response rating (pigweed; [14]) | Plant response rating, Morningglory (morningglory; [15]) | Sedge, Umbrella plant response rating ([3]; visual rating, 13 to 15 days)
90: Plant response rating, Cocklebur (cocklebur; [15]) | Plant response rating, Velvetleaf (velvetleaf; [13]) | Lambsquarters plant response rating (lambsquarters; [14]) | Plant response rating, Surinam Grass (Surinam grass; [13])
10: Cocklebur plant response rating (cocklebur; [11]) | Wheat plant response rating (wheat; [14])
60: Cocklebur plant response rating (cocklebur; [14]) | Velvetleaf plant response rating (velvetleaf; [11]) | Morningglory plant response rating (morningglory; [14])
100: Plant response rating, Foxtail, Giant (giant foxtail; [15]) | Plant response rating, Foxtail, Giant (giant foxtail; [13]) | Plant response rating, Crabgrass, Large (large crabgrass; [15]) | Plant response rating, Crabgrass, Large (large crabgrass; [13]) | Plant response rating, Velvetleaf (velvetleaf; [15]) | Plant response rating, Barnyardgrass (barnyardgrass [2]; [15]) | Plant response rating, Barnyardgrass (barnyardgrass [2]; [13]) | Plant response rating, Lambsquarters (lambsquarters; [15]) | Plant response rating, Lambsquarters (lambsquarters; [13]) | Plant response rating, Pigweed (pigweed; [15]) | Plant response rating, Pigweed (pigweed; [13]) | Plant response rating, Surinam Grass (Surinam grass; [15])
40: Oat, Wild plant response rating (wild oat; [14]) | Crabgrass, Large plant response rating (large crabgrass; [14]) | Pigweed plant response rating (pigweed; [11]) | Surinam Grass plant response rating (Surinam grass; [14])
0: Corn plant response rating (corn; [11]) | Corn plant response rating (corn; [14]) | Barnyardgrass plant response rating (barnyardgrass [2]; [11]) | Surinam Grass plant response rating (Surinam grass; [11]) | Morningglory plant response rating (morningglory; [11])
30: Foxtail, Giant plant response rating (giant foxtail; [14]) | Plant response rating, Corn (corn; [13]) | Plant response rating, Cocklebur (cocklebur; [13]) | Barnyardgrass plant response rating (barnyardgrass [2]; [14])
20: Oat, Wild plant response rating (wild oat; [11]) | Foxtail, Giant plant response rating (giant foxtail; [11]) | Crabgrass, Large plant response rating (large crabgrass; [11]) | Plant response rating, Morningglory (morningglory; [13])
